From US12077503B2, “Substituted cyclic amides and their use as herbicides” (FMC CORPORATION, priority 2015, dated 2024)

How the values were obtained:
Type in all cases: in vivo
[1] = system: Kochia (Kochia scoparia); assay: Test A preemergence
Outline: (§1)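 Visual injury, scored on a 0–100 scale relative to untreated controls, was recorded about 10 d after application. Treatments were a preemergence soil spray over planted seeds or a postemergence spray on plants at the one- to two-leaf stage, 2 to 10 cm tall, all in loam soil–sand blend in the greenhouse.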

[2] = system: barnyardgrass (Echinochloa crus-galli); assay: Test A preemergence
Outline: as §1

[3] = system: giant foxtail (Setaria faberii); assay: Test A preemergence
Outline: as §1

[4] = system: pigweed (Amaranthus retroflexus); assay: Test A preemergence
[5] = system: ragweed (common ragweed, Ambrosia elatior); assay: Test A preemergence
Outline: as §1

[6] = system: ryegrass, Italian (Italian ryegrass, Lolium multiflorum); assay: Test A preemergence
Outline: as §1

[7] = system: Galium (catchweed bedstraw, Galium aparine); assay: Test A postemergence
Outline: as §1

[8] = system: Kochia (Kochia scoparia); assay: Test A postemergence
Outline: as §1

[9] = system: barnyardgrass (Echinochloa crus-galli); assay: Test A postemergence
Outline: as §1

[10] = system: blackgrass (Alopecurus myosuroides); assay: Test A postemergence
Outline: as §1

[11] = system: corn (Zea mays); assay: Test A postemergence
Outline: as §1

[12] = system: giant foxtail (Setaria faberii); assay: Test A postemergence
Outline: as §1

[13] = system: pigweed (Amaranthus retroflexus); assay: Test A postemergence
Outline: as §1

[14] = system: ragweed (common ragweed, Ambrosia elatior); assay: Test A postemergence
Outline: as §1

[15] = system: ryegrass, Italian (Italian ryegrass, Lolium multiflorum); assay: Test A postemergence
Outline: as §1

[16] = system: wheat (Triticum aestivum); assay: Test A postemergence
Outline: as §1

[17] = system: barnyardgrass (Echinochloa crus-galli); assay: Test B flooded paddy test; conditions: Flood, 250 g ai/ha; 0 to 100 scale where 0 is no effect and 100 is complete control; 13 to 15 d
Outline: (§2)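 Percent control, visually estimated after 13–15 d in the greenhouse on a 0–100 basis, compares treated pots with untreated ones; compound was put into paddy water 3 cm above the soil when plants had two leaves.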

[18] = system: ducksalad (Heteranthera limosa); assay: Test B flooded paddy test; conditions: Flood, 250 g ai/ha; 0 to 100 scale where 0 is no effect and 100 is complete control; 13 to 15 d
Outline: as §2

[19] = system: rice (Oryra sativa); assay: Test B flooded paddy test; conditions: Flood, 250 g ai/ha; 0 to 100 scale where 0 is no effect and 100 is complete control; 13 to 15 d
Outline: as §2

[20] = system: sedge, umbrella (small-flower umbrella sedge, Cyperus difformis); assay: Test B flooded paddy test; conditions: Flood, 250 g ai/ha; 0 to 100 scale where 0 is no effect and 100 is complete control; 13 to 15 d
Outline: as §2

[21] = 125 g ai/ha, Preemergence, visual injury after approximately 10 d, 0 to 100 scale where 0 is no effect and 100 is complete control
[22] = 500 g ai/ha, preemergence, 0 to 100 scale, 0 = no effect, 100 = complete control
[23] = 125 g ai/ha, postemergence, visual rating after approx. 10 d, 0 to 100 scale (0 no effect, 100 complete control)
[24] = 500 g ai/ha, postemergence, visual injury, 0 to 100 scale (0 no effect, 100 complete control), approx. 10 d
[25] = 125 g ai/ha, preemergence, 0 to 100 scale (0 no effect, 100 complete control)
[26] = Preemergence, 500 g ai/ha, 0 is no effect, 100 is complete control
[27] = 500 g ai/ha, postemergence, 0 to 100 scale, 0 no effect, 100 complete control
[28] = Postemergence, 125 g ai/ha, visual injury, 0 to 100 scale (0 no effect, 100 complete control), approx. 10 d

Compound: Cc1ccc(C2CNC(=O)C2C(=O)Nc2ccccc2F)cc1C(F)(F)F (racemic) [Compound 654]
- Plant response rating, Kochia [1, 21]: 0
- Plant response rating, Kochia [1, 22]: 40
- Plant response rating, Barnyardgrass [2, 21]: 90
- Plant response rating, Barnyardgrass [2, 22]: 90
- Plant response rating, Foxtail, Giant [3, 21]: 90
- Plant response rating, Foxtail, Giant [3, 22]: 90
- Plant response rating, Pigweed [4, 21]: 40
- Plant response rating, Pigweed [4, 22]: 70
- Plant response rating, Ragweed [5, 21]: 0
- Plant response rating, Ragweed [5, 22]: 30
- Plant response rating, Ryegrass, Italian [6, 21]: 40
- Plant response rating, Ryegrass, Italian [6, 22]: 80
- Plant response rating, Galium [7, 23]: 40
- Plant response rating, Galium [7, 24]: 60
- Plant response rating, Kochia [8, 23]: 20
- Plant response rating, Kochia [8, 24]: 50
- Plant response rating, Barnyardgrass [9, 23]: 90
- Plant response rating, Barnyardgrass [9, 24]: 90
- Plant response rating, Blackgrass [10, 23]: 30
- Plant response rating, Blackgrass [10, 24]: 50
- Plant response rating, Corn [11, 23]: 20
- Plant response rating, Corn [11, 24]: 70
- Plant response rating, Foxtail, Giant [12, 23]: 70
- Plant response rating, Foxtail, Giant [12, 24]: 90
- Plant response rating, Pigweed [13, 23]: 0
- Plant response rating, Pigweed [13, 24]: 20
- Plant response rating, Ragweed [14, 23]: 0
- Plant response rating, Ragweed [14, 24]: 20
- Plant response rating, Ryegrass, Italian [15, 23]: 30
- Plant response rating, Ryegrass, Italian [15, 24]: 60
- Plant response rating, Wheat [16, 23]: 0
- Plant response rating, Wheat [16, 24]: 40
- Plant response rating, Barnyardgrass [17]: 35
- Plant response rating, Ducksalad [18]: 90
- Plant response rating, Rice [19]: 0
- Plant response rating, Sedge, Umbrella [20]: 0

Compound: CC(C)Oc1cccc(C2CN(C)C(=O)C2C(=O)Nc2ccc(F)cc2F)c1 (stereo not drawn) [Compound 378]
- Plant response rating, Kochia [1, 25]: 80
- Kochia plant response rating (0 to 100 scale) [1, 26]: 90
- Plant response rating, Barnyardgrass [2, 25]: 20
- Barnyardgrass plant response rating (0 to 100 scale) [2, 26]: 90
- Plant response rating, Foxtail, Giant [3, 25]: 90
- Foxtail, Giant plant response rating (0 to 100 scale) [3, 26]: 100
- Plant response rating, Pigweed [4, 25]: 60
- Pigweed plant response rating (0 to 100 scale) [4, 26]: 80
- Plant response rating, Ragweed [5, 25]: 10
- Ragweed plant response rating (0 to 100 scale) [5, 26]: 50
- Plant response rating, Ryegrass, Italian [6, 25]: 50
- Ryegrass, Italian plant response rating (0 to 100 scale) [6, 26]: 80
- Plant response rating, Galium [7, 27]: 70
- Plant response rating, Galium [7, 28]: 60
- Plant response rating, Kochia [8, 27]: 70
- Plant response rating, Kochia [8, 28]: 50
- Plant response rating, Barnyardgrass [9, 27]: 90
- Plant response rating, Barnyardgrass [9, 28]: 80
- Plant response rating, Blackgrass [10, 27]: 70
- Plant response rating, Blackgrass [10, 28]: 50
- Plant response rating, Corn [11, 27]: 80
- Plant response rating, Corn [11, 28]: 50
- Plant response rating, Foxtail, Giant [12, 27]: 80
- Plant response rating, Foxtail, Giant [12, 28]: 80
- Plant response rating, Pigweed [13, 27]: 50
- Plant response rating, Pigweed [13, 28]: 0
- Plant response rating, Ragweed [14, 27]: 50
- Plant response rating, Ragweed [14, 28]: 20
- Plant response rating, Ryegrass, Italian [15, 27]: 70
- Plant response rating, Ryegrass, Italian [15, 28]: 40
- Plant response rating, Wheat [16, 27]: 50
- Plant response rating, Wheat [16, 28]: 40
- Plant response rating, Barnyardgrass [17]: 70
- Plant response rating, Ducksalad [18]: 30
- Plant response rating, Rice [19]: 0
- Plant response rating, Sedge, Umbrella [20]: 0
